Data as given in patent US4885239A, “Rapid differentiation of bacteria using polyether antibiotics” (Eastman Kodak Company, priority 1986, dated 1989).

Key:
E. coli (gram -) [1] = assay: change in optical density with tetrazolium salt MTT (Example 5), E. coli; format: cell-based, Escherichia coli (ATCC 25922); details: 540 nm, 37° C., without antibiotic 0.643
Description: (§1) gram-negative bacteria Enterobacter cloacae (ATCC 23355), Escherichia coli (ATCC 25922), Proteus vulgaris (ATCC 13315), Klebsiella pneumoniae (ATCC 13883) and Pseudomonas aeruginosa (ATCC 27853), and gram-positive bacteria Staphylococcus aureus (ATCC 25923) and Streptococcus pyogenes (ATCC 19615), and brain heart infusion (BHI) broth from Difco Laboratories (Detroit, Mich.),
(§2) Bacterial suspensions were prepared by growing the cells in BHI to stationary phase overnight at 37° C. P. aeruginosa was grown with agitation. About 40 ml of overnight cultures were centrifuged, decanted and washed once with 0.05 molar potassium phosphate buffer or 0.05 molar N-2-hydroxyethylpiperazine-N'-2-ethanesulfonic acid (HEPES) buffer, pH 7.8, and resuspended in buffer.
The reducible compound solution was prepared with 3-(4,5-dimethyl-2-thiazolyl)-2,5-diphenyl-2H-tetrazolium bromide (MTT) (200 μl of 5 mg/ml methanol), 200 μl glucose solution (10% in water), 200 μl trimethyl-1,4-benzoquinone ETA (1.5 mg/ml methanol) and 12 ml of HEPES buffer (0.05 molar, pH 7.8).
Test solutions were prepared with the following: 50 μl HEPES buffer, 50 μl polyether antibiotic A23187 (free acid, 0.01 molar in methanol), 10 μl calcium chloride (1 molar) (serial dilutions of buffer and antibiotic were performed to obtain various antibiotic concentrations), 50 μl of the appropriate cell suspension, E. coli (about 10^8 cells/ml) or S. aureus (about 10^8 cells/ml), and 200 μl of the MTT solution. Control solutions were prepared as described in previous Examples.
Optical density measurements were obtained at 540 nm using a standard spectrophotometer and the change in optical density (ΔOD) was determined after 30 minutes at 37° C. The resulting data are shown in Table VII below for several concentrations of antibiotic. It is clear from the data that the composition of this example was useful for differentiating bacteria.

S. aureus (gram +) = assay: change in relative fluorescence with water-compatible RIND XXXV (Example 4), S. aureus; format: cell-based, Staphylococcus aureus (ATCC 25923); details: 37° C., without antibiotic 2667
Description: as §1, §2
A dispersion containing a RIND compound was prepared by dissolving RIND VII from Table II above in N,N-dimethylformamide (DMF) at 16 mg compound per ml of solvent. An aliquot (250 μl) of the resulting solution was added to 500 μl of TRITON X-100 surfactant. This mixture was then added dropwise with stirring to 25 ml of 0.05 molar HEPES buffer. A solution containing a water-compatible RIND compound XXXV was prepared by dissolving the compound (16 mg/ml) in N,N-dimethylformamide which had been acidified with a 0.1% sulfuric acid solution.
A solution was prepared from the following components: 100 μl RIND XXXV solution (16 mg/ml acidified N,N-dimethylformamide), 200 μl glucose solution (10% in water), 200 μl trimethyl-1,4-benzoquinone ETA solution (1.5 mg/ml methanol) and 10 ml HEPES buffer.
Test solutions were prepared from the following reagents: 50 μl HEPES buffer, 50 μl polyether antibiotic A23187 (free acid, 0.01 molar in methanol), 10 μl calcium chloride solution (1 molar) (serial dilutions of buffer and antibiotic were performed to obtain various antibiotic concentrations), 50 μl of the appropriate cell suspensions (E. coli, about 10^8 cells/ml and S. aureus, about 10^8 cells/ml) and 200 μl of the RIND solution. Control solutions were prepared as described in Examples 2 and 3.
Relative fluorescence was measured using a standard spectrophotometer modified to read at excitation of 540 nm and emission of 620 nm. The change (Δ) in relative fluorescence was determined after 30 minutes at 37° C. for several concentration levels of antibiotic.

E. coli (gram -) [2] = assay: inhibition of the reduction of RIND XXXV in dry analytical element (Example 6), E. coli; format: cell-based, Escherichia coli (ATCC 25922); details: calcium chloride, 30 minutes, 37° C.
Description: as §1
Bacterial suspensions were prepared by growing the cells in BHI to stationary phase overnight at 37° C. P. aeruginosa was grown with agitation. […]
Optical density readings (OD) were made at 635 nm at 0 minutes and after incubation at 37° C. for 30 minutes for all solutions, and the change (ΔOD) was determined. […] The corrected percent inhibition was calculated by dividing the difference between ΔOD obtained from a Control test without antibiotic and the ΔOD of the test, by the ΔOD of the Control without antibiotic. All readings were corrected by subtracting readings of the appropriate background control. […]
The relative fluorescence (excitation 540 nm, emission 620 nm) was measured using a standard spectrophotometer, and the change in relative fluorescence was determined after 30 minutes at 37° C. […]

Q: Which “Δ OD after 30 Min.” value (E. coli (gram -) [1]; antibiotic 1 × 10^-4 molar) does the source give for `CNc1ccc2oc(C[C@H]3O[C@@]4(CC[C@H]3C)O[C@H]([C@H](C)C(=O)c3ccc[nH]3)[C@H](C)C[C@H]4C)nc2c1C(=O)O` [calimycin, Calimycin] here?
A: Its value is 0.503.

Q: And the “Δ OD after 30 Min.” value (E. coli (gram -) [1]; antibiotic 2 × 10^-4 molar)?
A: The value was 0.529.

Q: What about the “Δ OD after 30 Min.” value (E. coli (gram -) [1]; antibiotic 4 × 10^-4 molar) of the same compound?
A: Its value is 0.512.

Q: And the “Δ OD after 30 Min.” value (E. coli (gram -) [1]; antibiotic 8 × 10^-4 molar)?
A: Its value is 0.413.

Q: And the “Δ Relative Fluorescence after 30 Min.” value (S. aureus (gram +); antibiotic 1 × 10^-4 molar)?
A: The value was 409.

Q: And the “Δ Relative Fluorescence after 30 Min.” value (S. aureus (gram +); antibiotic 2 × 10^-4 molar)?
A: The value was 362.

Q: What about the “Δ Relative Fluorescence after 30 Min.” value (S. aureus (gram +); antibiotic 4 × 10^-4 molar) of the same compound?
A: The value was 290.

Q: And the “Δ Relative Fluorescence after 30 Min.” value (S. aureus (gram +); antibiotic 8 × 10^-4 molar)?
A: Its value is 345.

Q: What about the “Corrected Percent Inhibition” value (E. coli (gram -) [2]) of the same compound?
A: Its value is 11.5%.
